≈ marks a conversion by molar mass, not a printed value. Read-outs that look alike come from different tables or passages of the source. Peptide text beside a SMILES is read from it.
Legend:
E. coli (ATCC 25922) [1] = conditions: 24 h, ≥99.9% kill
[2] = tested on: P. aeruginosa (ATCC 27883); design: MIC P. aeruginosa: unit not given beside the values; conditions: supplementary csv, unit not given
MRSA (ATCC BAA-1556) = tested on: MRSA (ATCC BAA-1556); design: MIC MRSA: unit not given beside the values; conditions: for MIC MRSA: supplementary csv, unit not given
E. coli (ATCC 25922) [3] = tested on: E. coli (ATCC 25922); design: MIC E. coli: unit not given beside the values; conditions: supplementary csv, unit not given
[4] = tested on: human red blood cells (hRBCs); conditions: red cells of human, 2 h
Description: The hemolytic activity of all the cyclic peptides was determined using human red blood cells (hRBC) purchased from BioIVT, USA. […] Peptide-induced hemolysis was tested in triplicate by mixing 75 μL of the peptide solution in PBS (two-fold serial dilution) with 75 μL of a 4% (v/v) hRBC suspension in phosphate-buffered saline. The plates were incubated for 2 h at 37 °C without agitation and centrifuged at 1000g for 10 min. Aliquots (100 μL) of the supernatant were transferred to 96-well plates, where hemoglobin release was measured spectrophotometrically at 567 nm. Percent hemolysis was calculated by the following formula: [drawing 1] where A represents the absorbance of the peptide sample at 567 nm and A0 and At represent zero percent and 100% hemolysis determined in phosphate-buffered saline and 1% Triton X-100, respectively.

[5] = tested on: P. aeruginosa (ATCC 27883); conditions: 24 h, ≥99.9% kill
[6] = tested on: K. pneumoniae (ATCC BAA-1705); conditions: for MIC K. pneumoniae: supplementary csv, unit not given
[7] = tested on: K. pneumoniae (ATCC BAA-1705); conditions: 24 h, ≥99.9% kill
[8] = tested on: normal lung (MRC-5) cells
[9] = tested on: human skin fibroblast cells (HeKa)

| SMILES | MBC E. coli (ATCC 25922) (E. coli (ATCC 25922) [1]) | MIC P. aeruginosa [2] | MIC MRSA (MRSA (ATCC BAA-1556)) | MIC E. coli (E. coli (ATCC 25922) [3]) | HC50 [4] | MBC P. aeruginosa (ATCC 27883) [5] | MIC K. pneumoniae [6] | MBC K. pneumoniae (ATCC BAA-1705) [7] | other results |
| --- | --- | --- | --- | --- | --- | --- | --- | --- | --- |
| N=C(N)NCCC[C@@H]1NC(=O)[C@H](CCCNC(=N)N)NC(=O)[C@H](CCCNC(=N)N)NC(=O)[C@H](Cc2c[nH]c3ccccc23)NC(=O)[C@H](Cc2c[nH]c3ccccc23)NC(=O)[C@H](Cc2c[nH]c3ccccc23)NC(=O)[C@H](Cc2c[nH]c3ccccc23)NC(=O)[C@H](Cc2c[nH]c3ccccc23)NC(=O)[C@H](CCCNC(=N)N)NC(=O)[C@H](CCCNC(=N)N)NC1=O [5b, [R5W5]] | 64 µg/mL (≈ 37.4 µM) | 32 | 4 | 16 | 230 µg/mL | 32 µg/mL (≈ 18.7 µM) | 32 | 32 µg/mL (≈ 18.7 µM) |  |
| N=C(N)NCCC[C@@H]1NC(=O)[C@H](CCCNC(=N)N)NC(=O)[C@H](CCCNC(=N)N)NC(=O)[C@H](CCCNC(=N)N)NC(=O)[C@H](Cc2c[nH]c3ccccc23)NC(=O)[C@H](Cc2c[nH]c3ccccc23)NC(=O)[C@H](Cc2c[nH]c3ccccc23)NC(=O)[C@H](Cc2c[nH]c3ccccc23)NC(=O)[C@H](CCCNC(=N)N)NC(=O)[C@H](CCCNC(=N)N)NC1=O [6a, [R6W4]] (cyclo(RRRRRRWWWW)) | 32 µg/mL (≈ 19 µM) | 16 | 8 | 32 | 265 µg/mL | 16 µg/mL (≈ 9.51 µM) | 64 | 128 µg/mL (≈ 76.1 µM) | MIC MRSA (ATCC BAA-1556) (MRSA (ATCC BAA-1556); CaCl2 (2 mM)): 8 µg/mL (≈ 4.76 µM); MIC MRSA (ATCC BAA-1556) (MRSA (ATCC BAA-1556); FBS (25%)): 8 µg/mL (≈ 4.76 µM); MIC MRSA (ATCC BAA-1556) (MRSA (ATCC BAA-1556); FeCl3 (8 µM)): 8 µg/mL (≈ 4.76 µM); MIC MRSA (ATCC BAA-1556) (MRSA (ATCC BAA-1556); KCl ([…])): 8 µg/mL (≈ 4.76 µM); MIC MRSA (ATCC BAA-1556) (MRSA (ATCC BAA-1556); MH broth media, absence of salts and serum): 8 µg/mL; MIC MRSA (ATCC BAA-1556) (MRSA (ATCC BAA-1556); MgCl2 (1 mM)): 4 µg/mL (≈ 2.38 µM); MIC MRSA (ATCC BAA-1556) (MRSA (ATCC BAA-1556); NH4Cl (6 mM)): 4 µg/mL (≈ 2.38 µM); MIC MRSA (ATCC BAA-1556) (MRSA (ATCC BAA-1556); NaCl (150 mM)): 8 µg/mL (≈ 4.76 µM); MIC K. pneumoniae (ATCC BAA-1705) ([6]; MgCl2 (1 mM)): 32 µg/mL (≈ 19 µM); MIC K. pneumoniae (ATCC BAA-1705) ([6]; NH4Cl (6 mM)): 32 µg/mL (≈ 19 µM) |
| N=C(N)NCCC[C@@H]1NC(=O)[C@H](CCCNC(=N)N)NC(=O)[C@H](CCCNC(=N)N)NC(=O)[C@H](CCCNC(=N)N)NC(=O)[C@H](Cc2c[nH]c3ccccc23)NC(=O)[C@H](Cc2c[nH]c3ccccc23)NC(=O)[C@H](Cc2c[nH]c3ccccc23)NC(=O)[C@H](Cc2c[nH]c3ccccc23)NC(=O)[C@H](Cc2c[nH]c3ccccc23)NC(=O)[C@H](CCCNC(=N)N)NC(=O)[C@H](CCCNC(=N)N)NC1=O [6b, [R6W5]] (cyclo(RRRRRRWWWWW)) | 128 µg/mL (≈ 68.5 µM) | 16 | 8 | 32 | 255 µg/mL | 32 µg/mL (≈ 17.1 µM) | 64 | 64 µg/mL (≈ 34.3 µM) |  |
| C[S+](C)[O-] [DMSO (30%), DMSO] |  |  |  |  |  |  |  |  | cell viability [8]: 7–11%; cell viability [9]: 7–11%; cell viability (liver (HepaRG) cells): 7–11%; cell viability (kidney (HEK-293) cells): 7–11% |
